According to US6906095B2, “Indolylalkylidenehydrazine-carboximidamide derivatives as 5-hydroxytryptamine-6 ligands” (Wyeth, priority 2002, dated 2005):

Molecular target: T1, human cloned 5-HT6 receptors (Homo sapiens, UniProt P50406)
T1 construct: expressed in transfected cells; host or cells: Hela cells
Experiment: 5-HT6 binding affinity, [3H]-LSD displacement in membranes of Hela cells
Conditions: for inhibition at 1 µM: test compound dose 1000 nM, read-out: % Inhibition; for inhibition at 0.1 µM: test compound dose 100 nM

T1 sequence (P50406 whole entry): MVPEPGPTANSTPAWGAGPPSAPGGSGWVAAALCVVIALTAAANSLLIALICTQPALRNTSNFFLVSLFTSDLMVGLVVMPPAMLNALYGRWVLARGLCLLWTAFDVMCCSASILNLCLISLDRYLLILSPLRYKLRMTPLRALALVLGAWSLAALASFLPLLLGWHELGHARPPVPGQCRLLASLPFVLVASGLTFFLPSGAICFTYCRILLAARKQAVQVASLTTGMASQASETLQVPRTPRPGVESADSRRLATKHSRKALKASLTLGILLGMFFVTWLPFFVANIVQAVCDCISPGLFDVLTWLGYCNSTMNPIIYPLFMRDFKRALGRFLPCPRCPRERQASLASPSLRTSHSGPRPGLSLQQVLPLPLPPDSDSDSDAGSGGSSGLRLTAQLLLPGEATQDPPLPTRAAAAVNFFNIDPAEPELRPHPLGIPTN

Row | inhibition at 1 µM ([3H]-LSD 3.0 nM) [%] | inhibition at 0.1 µM ([3H]-LSD 3.0 nM) [%] | SMILES | also measured
1 | 85.5 | – | COc1ccc(S(=O)(=O)n2cc(C(C)=NNC(=N)N)c3cc(Cl)ccc32)cc1 [Example 78, 2-(1-{5-chloro-1-[(4-methoxyphenyl)sulfonyl]-1H-indol-3-yl}ethylidene)hydrazinecarboximidamide] | –
2 | 61 | – | CCCCC(=NNC(=N)N)c1cn(S(=O)(=O)c2ccc(OC)cc2)c2ccc(Cl)cc12 [Example 79, 2-(1-{5-chloro-1-[(4-methoxyphenyl)sulfonyl]-1H-indol-3-yl}pentylidene)hydrazinecarboximidamide] | –
3 | – | 74 | COc1ccc(S(=O)(=O)n2cc(C(=NNC(=N)N)C3CC3)c3cc(Cl)ccc32)cc1 [Example 80, 2-[{5-chloro-1-[(4-methoxyphenyl)sulfonyl]-1H-indol-3-yl}(cyclopropyl)methylidene]hydrazinecarboximidamide] | –
4 | 46.9 | – | CCCCC(=NNC(=N)N)c1cn(S(=O)(=O)c2ccc3ccccc3c2)c2ccc(Cl)cc12 [Example 82, 2-{1-[5-chloro-1-(2-naphthylsulfonyl)-1H-indol-3-yl]pentylidene}hydrazinecarboximidamide] | –
5 | 89.3 | – | N=C(N)NN=C(c1cn(S(=O)(=O)c2ccc3ccccc3c2)c2ccc(Cl)cc12)C1CC1 [Example 83, 2-[[5-chloro-1-(2-naphthylsulfonyl)-1H-indol-3-yl](cyclopropyl)methylidene]hydrazinecarboximidamide] | –
6 | – | 81.7 | CC(=NNC(=N)N)c1cn(S(=O)(=O)c2ccccc2)c2ccc(Cl)cc12 [Example 84, 2-{1-[5-chloro-1-(phenylsulfonyl)-1H-indol-3-yl]ethylidene}hydrazinecarboximidamide] | –
7 | – | 57.5 | CCCCC(=NNC(=N)N)c1cn(S(=O)(=O)c2ccccc2)c2ccc(Cl)cc12 [Example 85, 2-{1-[5-chloro-1-(phenylsulfonyl)-1H-indol-3-yl]pentylidene}hydrazinecarboximidamide] | –
8 | – | 78.1 | N=C(N)NN=C(c1cn(S(=O)(=O)c2ccccc2)c2ccc(Cl)cc12)C1CC1 [Example 86, 2-[[5-chloro-1-(phenylsulfonyl)-1H-indol-3-yl](cyclopropyl)methylidene]hydrazinecarboximidamide] | –
9 | 88.9 | – | COc1ccc(S(=O)(=O)n2cc(C(C)=NNC(=N)N)c3cc(Cl)ccc32)cc1OC [Example 87, 2-(1-{5-chloro-1-[(3,4-dimethoxyphenyl)sulfonyl]-1H-indol-3-yl}ethylidene)hydrazinecarboximidamide] | –
10 | 65.6 | – | CCCCC(=NNC(=N)N)c1cn(S(=O)(=O)c2ccc(OC)c(OC)c2)c2ccc(Cl)cc12 [Example 88, 2-(1-{5-chloro-1-[(3,4-dimethoxyphenyl)sulfonyl]-1H-indol-3-yl}pentylidene)hydrazinecarboximidamide] | –
11 | – | 71.9 | COc1ccc(S(=O)(=O)n2cc(C(=NNC(=N)N)C3CC3)c3cc(Cl)ccc32)cc1OC [Example 89, 2-[{5-chloro-1-[(3,4-dimethoxyphenyl)sulfonyl]-1H-indol-3-yl}(cyclopropyl)-methylidene]hydrazinecarboximidamide] | –
12 | 63.5 | – | CC(=NNC(=N)N)c1c(-c2ccc(Cl)cc2)n(S(C)(=O)=O)c2ccccc12 [Example 90, 2-{1-[2-(4-chlorophenyl)-1-(methylsulfonyl)-1H-indol-3-yl]ethylidene}hydrazinecarboximidamide] | –
13 | 9 | – | CCCCC(=NNC(=N)N)c1c(-c2ccc(Cl)cc2)n(S(C)(=O)=O)c2ccccc12 [Example 91, 2-{1-[2-(4-chlorophenyl)-1-(methylsulfonyl)-1H-indol-3-yl]pentylidene}hydrazinecarboximidamide] | –
14 | 27.9 | – | N=C(N)NN=C(c1c(-c2ccc(Cl)cc2)n(S(=O)(=O)c2ccc3ccccc3c2)c2ccccc12)C1CC1 [Example 94, 2-[[2-(4-chlorophenyl)-1-(2-naphthylsulfonyl)-1H-indol-3-yl](cyclopropyl)methylidene]hydrazinecarboximidamide] | –
15 | 89.6 | – | CC(=NNC(=N)N)c1c(-c2ccc(Cl)cc2)n(S(=O)(=O)c2ccccc2)c2ccccc12 [Example 95, 2-{1-[2-(4-chlorophenyl)-1-(phenylsulfonyl)-1H-indol-3-yl]ethylidene}hydrazinecarboximidamide] | –
16 | 20 | – | CCCCC(=NNC(=N)N)c1c(-c2ccc(Cl)cc2)n(S(=O)(=O)c2ccccc2)c2ccccc12 [Example 96, 2-{1-[2-(4-chlorophenyl)-1-(phenylsulfonyl)-1H-indol-3-yl]pentylidene}hydrazinecarboximidamide] | –
17 | 53.3 | – | COc1ccc(S(=O)(=O)n2c(-c3ccc(Cl)cc3)c(C(C)=NNC(=N)N)c3ccccc32)cc1OC [Example 98, 2-(1-{2-(4-chlorophenyl)-1-[(3,4-dimethoxyphenyl)sulfonyl]-1H-indol-3-yl}ethylidene)hydrazinecarboximidamide] | –
18 | – | 83.8 | CC(=NNC(=N)N)c1cn(S(C)(=O)=O)c2cc(F)ccc12 [Example 100, 2-{1-[6-fluoro-1-(methylsulfonyl)-1H-indol-3-yl]ethylidene}hydrazinecarboximidamide] | Ki: 18 nM

Row | inhibition at 1 µM ([3H]-LSD 3.0 nM) [%] | inhibition at 0.1 µM ([3H]-LSD 3.0 nM) [%] | SMILES | also measured
19 | 77.4 | – | CCCCC(=NNC(=N)N)c1cn(S(C)(=O)=O)c2cc(F)ccc12 [Example 101, 2-{1-[6-fluoro-1-(methylsulfonyl)-1H-indol-3-yl]pentylidene}hydrazinecarboximidamide] | –
20 | – | – | CS(=O)(=O)n1cc(C(=NNC(=N)N)C2CC2)c2ccc(F)cc21 [Example 102, 2-{cyclopropyl[6-fluoro-1-(methylsulfonyl)-1H-indol-3-yl]methylidene}hydrazinecarboximidamide] | inhibition at 0.01 µM (test compound dose 10 nM, [3H]-LSD 3.0 nM): 41.1%
21 | – | 69.4 | CCCCS(=O)(=O)n1cc(C(C)=NNC(=N)N)c2ccc(F)cc21 [Example 103, 2-{1-[1-(butylsulfonyl)-6-fluoro-1H-indol-3-yl]ethylidene}hydrazinecarboximidamide] | –
22 | 81.3 | – | CCCCC(=NNC(=N)N)c1cn(S(=O)(=O)CCCC)c2cc(F)ccc12 [Example 104, 2-{1-[1-(butylsulfonyl)-6-fluoro-1H-indol-3-yl]pentylidene}hydrazinecarboximidamide] | –
23 | – | 58.4 | CCCCS(=O)(=O)n1cc(C(=NNC(=N)N)C2CC2)c2ccc(F)cc21 [Example 105, 2-[[1-(butylsulfonyl)-6-fluoro-1H-indol-3-yl](cyclopropyl)methylidene]hydrazinecarboximidamide] | –
24 | 64.4 | – | COc1ccc(S(=O)(=O)n2cc(C(C)=NNC(=N)N)c3ccc(F)cc32)cc1 [Example 106, 2-(1-{6-fluoro-1-[(4-methoxyphenyl)sulfonyl]-1H-indol-3-yl}ethylidene)hydrazinecarboximidamide] | –
25 | 61.5 | – | CCCCC(=NNC(=N)N)c1cn(S(=O)(=O)c2ccc(OC)cc2)c2cc(F)ccc12 [Example 107, 2-(1-{6-fluoro-1-[(4-methoxyphenyl)sulfonyl]-1H-indol-3-yl}pentylidene)hydrazinecarboximidamide] | –
26 | 67.8 | – | CC(=NNC(=N)N)c1cn(S(=O)(=O)c2ccc3ccccc3c2)c2cc(F)ccc12 [Example 109, 2-{1-[6-fluoro-1-(2-naphthylsulfonyl)-1H-indol-3-yl]ethylidene}hydrazinecarboximidamide] | –
27 | 60.2 | – | CCCCC(=NNC(=N)N)c1cn(S(=O)(=O)c2ccc3ccccc3c2)c2cc(F)ccc12 [Example 110, 2-{1-[6-fluoro-1-(2-naphthylsulfonyl)-1H-indol-3-yl]pentylidene}hydrazinecarboximidamide] | –
28 | – | 27.6 | N=C(N)NN=C(c1cn(S(=O)(=O)c2ccc3ccccc3c2)c2cc(F)ccc12)C1CC1 [Example 111, 2-{cyclopropyl[6-fluoro-1-(2-naphthylsulfonyl)-1H-indol-3-yl]methylidene}hydrazinecarboximidamide] | –
29 | 94.6 | – | CC(=NNC(=N)N)c1cn(S(=O)(=O)c2ccccc2)c2cc(F)ccc12 [Example 112, 2-{1-[6-fluoro-1-(phenylsulfonyl)-1H-indol-3-yl]ethylidene}hydrazinecarboximidamide] | –
30 | – | 85.2 | N=C(N)NN=C(c1cn(S(=O)(=O)c2ccccc2)c2cc(F)ccc12)C1CC1 [Example 114, 2-{cyclopropyl[6-fluoro-1-(phenylsulfonyl)-1H-indol-3-yl]methylidene}hydrazinecarboximidamide] | –
31 | 89.2 | – | COc1ccc(S(=O)(=O)n2cc(C(C)=NNC(=N)N)c3ccc(F)cc32)cc1OC [Example 115, 2-(1-{1-[(3,4-dimethoxyphenyl)sulfonyl]-6-fluoro-1H-indol-3-yl}ethylidene)hydrazinecarboximidamide] | –
32 | 73.5 | – | CCCCC(=NNC(=N)N)c1cn(S(=O)(=O)c2ccc(OC)c(OC)c2)c2cc(F)ccc12 [Example 116, 2-(1-{1-[(3,4-dimethoxyphenyl)sulfonyl]-6-fluoro-1H-indol-3-yl}pentylidene)hydrazinecarboximidamide] | –
33 | – | 78.2 | COc1ccc(S(=O)(=O)n2cc(C(=NNC(=N)N)C3CC3)c3ccc(F)cc32)cc1OC [Example 117, 2-(cyclopropyl{1-[(3,4-dimethoxyphenyl)sulfonyl]-6-fluoro-1H-indol-3-yl}methylidene)hydrazinecarboximidamide] | –
34 | – | – | CCC(=NNC(=N)N)c1cn(S(=O)(=O)c2ccccc2)c2ccc(F)cc12 [Example 118, 2-{1-[5-fluoro-1-(phenylsulfonyl)-1H-indol-3-yl]propylidene}hydrazinecarboximidamide] | Ki: 7 nM
35 | – | – | CCC(=NNC(=N)N)c1cn(S(=O)(=O)c2ccc(N)cc2)c2ccc(F)cc12 [Example 119, 2-(1-{1-[(4-aminophenyl)sulfonyl]-5-fluoro-1H-indol-3-yl}propylidene)hydrazinecarboximidamide] | Ki: 2 nM
36 | – | – | CCC(=NNC(=N)N)c1cn(S(=O)(=O)c2ccc3ccccc3c2)c2ccc(F)cc12 [Example 120, 2-{1-[5-fluoro-1-(2-naphthylsulfonyl)-1H-indol-3-yl]propylidene}hydrazinecarboximidamide] | Ki: 85 nM
